Measured values published in the supplement of paper PMC11451515.

Legend:
P12-Ichikawa [1] = experiment: AUC of viability dose-response curve (% viability x log10 dose units); higher = less sensitive; conditions: 48 h
Summary of the method: (§1)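 Leukemia cells adapted to each medium were seeded in 1536-well plates (500 or 1000 cells/well) and given library compounds in DMSO for 48 h at 37°C. The 11 threefold doses spanned 47 μM to 0.79 nM, and CellTiter-Glo One luminescence was normalised per plate to DMSO and cell-free wells before four-parameter log-logistic fitting on log10 dose. Area under the curve was integrated with the trapezoidal rule, scaling curves above full viability and removing curves that failed quality control.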

NOMO1 = experiment: as above; conditions: 48 h
Summary of the method: as §1

SEM cells [2] = experiment: as above; conditions: 48 h
Summary of the method: as §1

P12-Ichikawa [3] = experiment: cell viability relative to DMSO control; higher = less cytotoxic; conditions: HPLM + 10% dialyzed FBS, 48 h
Summary of the method: (§2)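 NOMO1, SEM and P12-Ichikawa leukemia cells spent at least four passages adapting to each medium before use. They were seeded at 500 cells/well (NOMO1, SEM) or 1000 cells/well (P12-Ichikawa) in 5 μl in 1536-well plates and pin-dosed with library compounds in DMSO at 11 threefold steps from 47 μM down to 0.79 nM. After 48 h at 37°C, CellTiter-Glo One luminescence was read. Viability is reported as a percentage of the DMSO wells on each plate, with cell-free wells as background.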

SEM cells [4] = experiment: as above; conditions: 48 h
Summary of the method: as §2

COc1ccc2cc3[n+](cc2c1OC)CCc1cc2c(cc1-3)OCO2
AUC of viability dose-response curve
Conditions | NOMO1 | P12-Ichikawa [1] | SEM cells [2]
HPLM + 10% dialyzed FBS | 431 | 429 | 445
RPMI 5 mM glucose + 10% FBS | 441 | 390 | 437
RPMI 5 mM glucose + 10% dialyzed FBS | 442 | 411 | 428

Clc1cccc(-n2nnnc2NCc2ccccc2Oc2ccccn2)c1Cl
Conditions | AUC of viability dose-response curve | cell viability [%]
NOMO1, HPLM + 10% dialyzed FBS | 472 | –
NOMO1, RPMI 5 mM glucose + 10% FBS | 472 | –
NOMO1, RPMI 5 mM glucose + 10% dialyzed FBS | 470 | –
P12-Ichikawa [1], HPLM + 10% dialyzed FBS | 458 | –
P12-Ichikawa [1], RPMI 5 mM glucose + 10% FBS | 467 | –
P12-Ichikawa [1], RPMI 5 mM glucose + 10% dialyzed FBS | 441 | –
P12-Ichikawa [3], 0.000781 µM | – | 120
P12-Ichikawa [3], 0.00234 µM | – | 120
P12-Ichikawa [3], 0.00702 µM | – | 116
P12-Ichikawa [3], 0.0211 µM | – | 124
P12-Ichikawa [3], 0.0632 µM | – | 123
P12-Ichikawa [3], 0.19 µM | – | 136
P12-Ichikawa [3], 0.569 µM | – | 133
P12-Ichikawa [3], 1.71 µM | – | 133
P12-Ichikawa [3], 5.12 µM | – | 133
P12-Ichikawa [3], 15.4 µM | – | 131
P12-Ichikawa [3], 46.1 µM | – | 127
SEM cells [2], HPLM + 10% dialyzed FBS | 439 | –
SEM cells [2], RPMI 5 mM glucose + 10% FBS | 470 | –
SEM cells [2], RPMI 5 mM glucose + 10% dialyzed FBS | 474 | –

cell viability [%], SEM cells [4]
Conditions | HPLM + 10% dialyzed FBS | RPMI 5 mM glucose + 10% dialyzed FBS
0.000781 µM | 102 | 116
0.00234 µM | 123 | 149
0.00702 µM | 124 | 125
0.0211 µM | 133 | 140
0.0632 µM | 123 | 113
0.19 µM | 131 | 126
0.569 µM | 128 | 149
1.71 µM | 125 | 129
5.12 µM | 127 | 148
15.4 µM | 139 | 147
46.1 µM | 138 | 119

CC(C)OC(=O)C(C)(C)Oc1ccc(C(=O)c2ccc(Cl)cc2)cc1
AUC of viability dose-response curve
Conditions | NOMO1 | P12-Ichikawa [1] | SEM cells [2]
HPLM + 10% dialyzed FBS | 469 | 447 | 446
RPMI 5 mM glucose + 10% FBS | 459 | 446 | 423
RPMI 5 mM glucose + 10% dialyzed FBS | 466 | 464 | 442

O=C1NCCc2[nH]c(-c3ccncc3)cc21
SEM cells [4], HPLM + 10% dialyzed FBS
Conditions | cell viability [%]
0.000781 µM | 106
0.00234 µM | 118
0.00702 µM | 119
0.0211 µM | 128
0.0632 µM | 133
0.19 µM | 140
0.569 µM | 147
1.71 µM | 149
5.12 µM | 149
15.4 µM | 41.2
46.1 µM | 8.55

AUC of viability dose-response curve
Conditions | NOMO1 | P12-Ichikawa [1] | SEM cells [2]
HPLM + 10% dialyzed FBS | 428 | 433 | 421
RPMI 5 mM glucose + 10% FBS | 439 | 428 | 423
RPMI 5 mM glucose + 10% dialyzed FBS | 431 | 426 | 430

Cc1cn[nH]c1
cell viability [%], SEM cells [4]
Conditions | HPLM + 10% dialyzed FBS | RPMI 5 mM glucose + 10% dialyzed FBS
0.000781 µM | 89.9 | 106
0.00234 µM | 115 | 121
0.00702 µM | 121 | 119
0.0211 µM | 115 | 131
0.0632 µM | 118 | 123
0.19 µM | 122 | 131
0.569 µM | 121 | 138
1.71 µM | 121 | 123
5.12 µM | 114 | 143
15.4 µM | 69 | 94.6
46.1 µM | 95.6 | 115

AUC of viability dose-response curve
Conditions | NOMO1 | P12-Ichikawa [1] | SEM cells [2]
HPLM + 10% dialyzed FBS | 456 | 461 | 456
RPMI 5 mM glucose + 10% FBS | 471 | 469 | 458
RPMI 5 mM glucose + 10% dialyzed FBS | 465 | 461 | 476

C=C1/C(=C/C=C2\CCCC3(C)[C@@H]([C@H](C)/C=C/C=C/C(O)(CC)CC)CC[C@@H]23)C[C@@H](O)C[C@@H]1O (some centres not stated)
AUC of viability dose-response curve
Conditions | NOMO1 | P12-Ichikawa [1] | SEM cells [2]
HPLM + 10% dialyzed FBS | 437 | 463 | 463
RPMI 5 mM glucose + 10% FBS | 422 | 451 | 460
RPMI 5 mM glucose + 10% dialyzed FBS | 445 | 455 | 448

CC(=O)c1cnc2ccc(-c3cc(Cl)c(O)c(Cl)c3)nc2c1N[C@H]1CC[C@H](CN(C)C)CC1
SEM cells [4], HPLM + 10% dialyzed FBS
Conditions | cell viability [%]
0.000781 µM | 110
0.00234 µM | 101
0.00702 µM | 105
0.0211 µM | 99.2
0.0632 µM | 63.5
0.19 µM | 25.4
0.569 µM | 16.2
1.71 µM | 6.2
5.12 µM | 6.52
15.4 µM | 5.71
46.1 µM | 6.59

AUC of viability dose-response curve
Conditions | NOMO1 | P12-Ichikawa [1] | SEM cells [2]
HPLM + 10% dialyzed FBS | 211 | 277 | 218
RPMI 5 mM glucose + 10% FBS | 237 | 256 | 213
RPMI 5 mM glucose + 10% dialyzed FBS | 237 | 253 | 208

Cn1cc(-c2ccc3nnc(Sc4ccc5ncccc5c4)n3n2)cn1
AUC of viability dose-response curve
Conditions | NOMO1 | P12-Ichikawa [1] | SEM cells [2]
HPLM + 10% dialyzed FBS | 463 | 460 | 457
RPMI 5 mM glucose + 10% FBS | 449 | 448 | 475
RPMI 5 mM glucose + 10% dialyzed FBS | 455 | 459 | 472

CC[C@@H]1C(=O)N(C)c2cnc(Nc3ccc(C(=O)NC4CCC(N5CCN(CC6CC6)CC5)CC4)cc3OC)nc2N1C(C)C (some centres not stated)
AUC of viability dose-response curve
Conditions | NOMO1 | P12-Ichikawa [1] | SEM cells [2]
HPLM + 10% dialyzed FBS | 276 | 201 | 199
RPMI 5 mM glucose + 10% FBS | 259 | 225 | 227
RPMI 5 mM glucose + 10% dialyzed FBS | 259 | 225 | 221

CN(C)Cc1c(C(=O)NCCOc2ccc(C(=O)NO)cc2)oc2ccccc12
AUC of viability dose-response curve
Conditions | NOMO1 | P12-Ichikawa [1] | SEM cells [2]
HPLM + 10% dialyzed FBS | 366 | 347 | 324
RPMI 5 mM glucose + 10% FBS | 372 | 345 | 326
RPMI 5 mM glucose + 10% dialyzed FBS | 375 | 357 | 332

COc1ccc(COc2cc3oc(=O)c4cc(C(C)O)ccc4c3cc2OC)cc1 (configuration not stated)
AUC of viability dose-response curve
Conditions | NOMO1 | P12-Ichikawa [1] | SEM cells [2]
HPLM + 10% dialyzed FBS | 446 | 457 | 451
RPMI 5 mM glucose + 10% FBS | 449 | 444 | 450
RPMI 5 mM glucose + 10% dialyzed FBS | 455 | 434 | 461

O=C(CCCCCCNC(=O)c1cnc(N(c2ccccc2)c2ccccc2)nc1)NO
AUC of viability dose-response curve
Conditions | NOMO1 | P12-Ichikawa [1] | SEM cells [2]
HPLM + 10% dialyzed FBS | 417 | 393 | 399
RPMI 5 mM glucose + 10% FBS | 422 | 386 | 390
RPMI 5 mM glucose + 10% dialyzed FBS | 426 | 382 | 392

Cl.Cl.Clc1ccc(Nc2nnc(Cc3ccncc3)c3ccccc23)cc1
AUC of viability dose-response curve
Conditions | NOMO1 | P12-Ichikawa [1] | SEM cells [2]
HPLM + 10% dialyzed FBS | 448 | 442 | 449
RPMI 5 mM glucose + 10% FBS | 469 | 472 | 446
RPMI 5 mM glucose + 10% dialyzed FBS | 460 | 446 | 357

COc1ccc(C(=O)N2CCCC2=O)cc1
AUC of viability dose-response curve
Conditions | NOMO1 | P12-Ichikawa [1] | SEM cells [2]
HPLM + 10% dialyzed FBS | 447 | 447 | 449
RPMI 5 mM glucose + 10% FBS | 456 | 456 | 422
RPMI 5 mM glucose + 10% dialyzed FBS | 467 | 439 | 461

O=C(/C=C/c1ccc(CN(CCO)CCc2c[nH]c3ccccc23)cc1)NO
AUC of viability dose-response curve
Conditions | NOMO1 | P12-Ichikawa [1] | SEM cells [2]
HPLM + 10% dialyzed FBS | 296 | 275 | 262
RPMI 5 mM glucose + 10% FBS | 295 | 271 | 261
RPMI 5 mM glucose + 10% dialyzed FBS | 303 | 277 | 269
